Assay results published in PMC6219798, “A novel decarboxylating amidohydrolase involved in avoiding metabolic dead ends during cyanuric acid catabolism in Pseudomonas sp. strain ADP” (PLoS ONE, 2018).
Values belong to the compound of their own block, whether it stands above or below them.

Columns and labels:
AtzEG = target: T1, AtzEG (Pseudomonas sp. ADP, UniProt Q936X3); test: GDH-coupled ammonia release at […] nm; format: biochemical; details: substrate made in situ by AtzD from 1 mM cyanuric acid; 0.17 uM enzyme, 25 mM potassium phosphate pH 8.5
T1 construct: gene atzE; AtzE and AtzG co-expressed from pACYCDuet-1 in E. coli BL21(DE3); heterotetramer; with 1-carboxybiuret hydrolase subunit AtzG
T1 sequence (Q936X3 1-457): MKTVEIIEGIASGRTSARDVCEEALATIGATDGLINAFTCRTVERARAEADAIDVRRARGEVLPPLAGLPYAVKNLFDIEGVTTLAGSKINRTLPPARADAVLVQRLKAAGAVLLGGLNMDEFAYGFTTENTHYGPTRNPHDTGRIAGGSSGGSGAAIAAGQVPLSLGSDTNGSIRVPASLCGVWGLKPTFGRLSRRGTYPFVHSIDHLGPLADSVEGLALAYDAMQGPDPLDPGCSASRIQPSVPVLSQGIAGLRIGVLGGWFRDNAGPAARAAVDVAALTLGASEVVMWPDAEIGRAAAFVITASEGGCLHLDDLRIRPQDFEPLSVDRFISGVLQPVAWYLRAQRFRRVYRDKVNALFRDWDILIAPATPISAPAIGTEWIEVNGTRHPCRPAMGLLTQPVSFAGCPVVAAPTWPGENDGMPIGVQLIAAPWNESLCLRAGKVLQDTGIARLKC
T1 sequence (A0A384E126 1-68 partner): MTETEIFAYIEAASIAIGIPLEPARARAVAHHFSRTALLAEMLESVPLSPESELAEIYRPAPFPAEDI

AtzD = target: T2, AtzD (Pseudomonas sp. ADP, UniProt P58329); test: UV absorbance at […] nm, ring opening; format: biochemical; details: 12 uM AtzD, 1 mM cyanuric acid
T2 construct: His6-tagged, E. coli BL21(DE3), Ni-NTA purified; cloning described elsewhere
T2 sequence (P58329 1-363): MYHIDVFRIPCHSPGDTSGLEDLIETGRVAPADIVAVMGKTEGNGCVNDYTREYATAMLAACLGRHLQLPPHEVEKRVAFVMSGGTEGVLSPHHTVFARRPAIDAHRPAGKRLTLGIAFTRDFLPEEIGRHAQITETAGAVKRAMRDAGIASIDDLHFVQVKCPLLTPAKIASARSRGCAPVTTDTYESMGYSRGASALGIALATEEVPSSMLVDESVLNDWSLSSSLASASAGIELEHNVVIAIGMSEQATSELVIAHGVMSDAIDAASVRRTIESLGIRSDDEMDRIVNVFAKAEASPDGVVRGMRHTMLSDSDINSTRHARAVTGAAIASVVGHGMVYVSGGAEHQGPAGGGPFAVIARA

[1] = target: AtzH from Pseudomonas sp. strain ADP, his-tag removed (Pseudomonas sp. strain ADP); test: SEC; size exclusion chromatography of AtzH after removal of the his-tag; Superdex preparation grade resin, 130 mL column, 25 mM HEPES, 200 mM NaCl, pH 7.5

Compound: NC(=O)NC(=O)NC(=O)O [1-carboxybiuret]
- GDH-coupled ammonia release at 340 nm (AtzEG): The substrate for AtzEG (1-carboxybiuret) is unstable and was therefore produced in situ

Compound: O=c1[nH]c(=O)[nH]c(=O)[nH]1 [cyanuric acid, 1,3,5-triazine-2,4,6-triol]
- UV absorbance at 214 nm, ring opening (AtzD): incubating AtzD and its substrate in the presence or absence of AtzH

- stoichiometry N [1]: 2
Compound: AtzH from Pseudomonas sp. strain ADP, his-tag removed (enzyme)
